In patent US9624277B2, “Anticancer agent” (AMRITA THERAPEUTICS LIMITED, priority 2010, dated 2017):
No end group written: not given here.

B1: MPT-63 (protein, listed as Mycobacterium bovis)
chain: MKLTTMIKTAVAVVAMAAIATFAEPVALAAYPITGKLGSELTMTDTVGQVVLGWKVSDLKSSTAVIPGYPVAGQVWEATATVNAIRGSVTPAVSQFNARTADGINYRVLWQAAGPDTISGATIPQGEQSTGKIYFDVTGPSPTIVAMNNGMQDLLIWEP

What was measured:
[1] = tested on: U87 human glioblastoma; settings: U87 cells (brain cancer), 24 h, MTT; MPT-63 at 1, 5 and 10 μM
[2] = tested on: HepG2 liver cancer; settings: HepG2 cells (liver cancer), 24 h, MTT; MPT-63 at 1, 5 and 10 μM
[3] = tested on: UM-UC-3 bladder cancer cell line; experiment: MTT cytotoxicity assay, UM-UC-3 bladder carcinoma cell line; assay type: cell-based, human; settings: UM-UC-3 cells, 1.0 and 10 μM, 24 h
Description: ATCC: UM-UC-3: Human cell line with epithelial-like characteristics established from a high grade invasive urinary bladder carcinoma of a patient. This is a hypertriploid human cell line and IFN non responsive. This cell line is tumorigenic in nature.

[4] = tested on: MDA-MB-231 breast cancer; settings: MDA-MB-231 cells (breast cancer), 24 h, MTT; MPT-63 at 1, 5 and 10 μM
[5] = tested on: CaSki cervix cancer cell line; settings: CaSki cells, compared with MB30, MTT
Description: (§1) The viability of the cells was estimated by using MTT assay on the basis of formazan formed, which was detected spectrophotometrically by optical density at 570 nm at 24 h, 48 h and 72 h [Bar-mean±S.E.].
All cell lines were grown under standard conditions in humidified 37° C. incubator in 5% CO2 as described earlier (Garg et al., 2009; Kanojia et al., 2010).
(§2) MTT [3-(4, 5-dimethylthiazol-2-yl)-2,5-diphenyl tetrazolium bromide] assay was carried out for measurement of the cytotoxicity of different anticancer peptides. The water soluble tetrazolium salt, MTT [3-(4,5-dimethylthiazol-2-yl)-2,5-diphenyl tetrazolium bromide] is metabolized to the water insoluble formazan by intact mitochondrial dehydrogenases. The formazan is then solubilized by adding 2-propanol+40 mM HCl for 4 h incubation. […] The viability of the cells was estimated on the basis of formazan formed, which was detected spectrophotometrically by optical density at 570 nm at 24 h, 48 h and 72 h. At every time point such as 24 h, 48 h and 72 h, 1×10^4 cells were seeded without the peptide in triplicate in each plate for a given treatment of peptide. This was used as control cytotoxicity levels to calculate the percent cell cytotoxicity of every peptide treatment. […] All the experiments were carried out in triplicates and repeated three times.

[6] = tested on: SiHa cervix cancer cell line; settings: SiHa cells, compared with MB30, MTT
Description: as §1, §2

[7] = tested on: HCT 116 colorectal cancer cell line; assay type: cell-based, human; settings: HCT 116 cells, compared with MB30, MTT
Description: ATCC HCT 116: Human cell line with epithelial-like characteristics established from colorectal carcinoma from an adult patient. The cells are positive for keratin by immunoperoxidase staining. HCT 116 cells are positive for transforming growth factor beta 1 (TGF beta 1) and beta 2 (TGF beta 2) expression. This line has a mutation in codon 13 of the ras protooncogene, and can be used as a positive control for PCR assays of mutation in this codon.

Row | Molecule | cytotoxicity (in words) [1] | cytotoxicity (in words) [2] | cytotoxicity levels (in words) [3] | cytotoxicity (in words) [4] | cytotoxicity (in words) [5] | cytotoxicity (in words) [6] | cytotoxicity (in words) [7]
1 | GQVWEATATVNAIRGSVTPAVSQFNARTAD [MB30] | better cytotoxicity in comparison to the full length protein MPT-63 | better cytotoxicity in comparison to the full length protein MPT-63 | higher cytotoxicity levels than the other peptide | better cytotoxicity in comparison to the full length protein MPT-63 |  |  | 
2 | NHFTLKCPKTALTEPPTLAY [TG20] |  |  |  |  | less cytotoxicity | less cytotoxicity | less cytotoxicity
3 | TAGIKLTVPIEKFPVTTQTFVVG [TG23] |  |  | higher cytotoxicity levels than the other peptide |  | less cytotoxicity | less cytotoxicity | less cytotoxicity
4 | B1 | shown cytotoxicity | shown cytotoxicity |  | shown cytotoxicity |  |  | 
